“Also recorded” adds a separate entry of the source.
Legend:
[1] = system: mouse pancreatic cancer cell lines (PDAC2.3, PDAC3.3, BTC3 and BTC4); assay: Uptake of NIR dyes by mouse pancreatic cancer cell lines; assay type: cell-based; conditions: PDAC2.3, PDAC3.3, BTC3, BTC4; 20 μM dye
ARCaPM cells = assay: Detection of prostate cancer cells in human blood; assay type: cell-based
Procedure: An experimental model of evaluating human prostate cancer cells in blood was developed. In brief, heparinized whole blood from human volunteers was collected according to an Emory University approved IRB protocol. A known number of human prostate cancer cells (10-1,000) were added to 1 ml of whole blood, mixed gently with 20 μM IR-783 and incubated for 30 minutes at 37° C. The mononuclear cells and cancer cells were recovered by gradient centrifugation using Histopaque-1077 (Sigma, St. Louis, Mo.). The isolated live cells were observed under a confocal fluorescence microscope.

## 2-[2-[2-Chloro-3-[2-[1,3-dihydro-3,3-dimethyl-1-(4-sulfobutyl)-2H-indol-2-ylidene]-ethylidene]-1-cyclohexen-1-yl]-ethenyl]-3,3-dimethyl-1-(4-sulfobutyl)-3H-indolium [IR-783]
[1]
  uptake of dye by mouse pancreatic cancer cell lines: taken up by other malignant cells from both human and mouse; also recorded: significant uptake
ARCaPM cells; ARCaPM cells (10 to 1,000) added to 1 ml whole blood
  fewest cancer cells detected in whole blood: 10 cancer cells per milliliter
ARCaPM cells; ARCaPM cells, 20 μM IR-783, 30 minutes, 37° C.
  visualization / dye uptake of cancer cells mixed with human blood: clearly visualized; also recorded: Significant uptake and retention
ARCaPM cells; human blood, 20 μM IR-783
  signal in mononuclear cells: hardly showed any signals

Source: US20170314056A1, “METHOD OF USING NEAR INFRARED FLUORESCENT DYES FOR IMAGING AND TARGETING CANCERS” (priority 2010, published 2017)
